Results on two compounds are retold here after patent publication US8258119B2, “Anti-cancer drugs and uses relating thereto for metastatic malignant melanoma and other cancers” (Kasina Laila Innova Pharmaceuticals, priority 2008, dated 2012).

The test system of data set [1] is A375 human melanoma cells. In words: MTT cell proliferation assay in A375 cells. It counts as cell-based. To be noted: A-375, 72 h, 3 days, read-out: 50% of inhibitory concentration, IC50 in A375 cells. Here is the method: MTT [3-(4,5-dimethylthiazol-2-yl)-2,5-diphenyltetrazolium bromide] incorporation based cell proliferation assay was performed using standard procedure with some modifications (38). The cytotoxic efficacy of the test compounds were evaluated in human malignant melanoma A2058 cells by MTT cell proliferation assay kit (Roche Applied Sciences, Germany). The assay was carried out according to the instruction provided by the vendor. Briefly, equal numbers of cells was plated in 96-well flat-bottomed plates in 100 μl of medium and were exposed to either DTIC or its derivative compounds at various concentrations up to 150 μg/ml for a period of three days. Vehicle control culture wells received only a maximum of 0.5% DMSO. […] After complete solubilization of the formazan crystals the absorbance was read at 540 nm in a microplate reader (BioRad, USA). […]
The comparative anti-tumor growth potential of DTIC and Compound 6 was further tested in B16F0 mouse melanoma cells and A375 human melanoma cells by using MTT based cell proliferation assay following the methodology described earlier (Example 19). […] After adding the MTT reagent, the cells were solubilized and the intracellular formazan formation was calorimetrically read at 540 nm in a microplate reader (BioRad, USA). […]
Background: Tetrazolium assays rely on reduction of a dye to a coloured formazan, in cell work by metabolically active cells.

The subject of data set [2] is B16 F0 mouse melanoma cells. Description: Cell cycle analysis by flow cytometry. Format: cell-based. To be noted: 24 h, propidium iodide FACS. Here is the method:
B16 F0 Cells were treated with the indicated concentrations of either vehicle (0.1% DMSO) or DTIC or Compound 6 for 24 h at different concentrations as indicated. The propidium iodide stained cells were analyzed for the distribution of cell cycle by FACS calibur, and the percentage of distribution at different phases of cell cycle was determined using ModFIT software. Data are shown as one representative of at least three independent experiments.
Cell cycle analysis of Compound 6 and DTIC treated B16F0 cells were analyzed by flow cytometry as described earlier with some modifications (42). Briefly, B16F0 cells were cultivated in DMEM containing 10% fetal bovine serum (FBS) in presence of 4.5 g/l D-glucose. The sub confluent cells were treated with either DTIC or Compound 6 and incubated for 24 h. Cells were harvested and prepared single cell suspension in buffer (PBS+2% FBS). The cells were washed twice with cold PBS and then fixed with cold 70% ethanol for 30 min. Ethanol was removed by centrifugation and the cells were suspended and the cell count was adjusted to 10^6 cells per ml. The cells were washed two times with PBS and then the cells were stained with propidium iodide for 30 min at 37° C. in presence of RNase. Finally, the cells were analyzed on FACS Calibur flow cytometry (BD Biosciences, USA). […]

Data set [3] concerns Vascular Endothelial Growth Factor (VEGF). Description: VEGF expression in B16F0 cells by western blot. Format: cell-based, mouse. To be noted: 50 μg/ml, 24 h. Here is the method: B16F0 cells were cultivated in Dulbecco's modified Eagle's red medium (DMEM) (Sigma Life Science, USA) containing 10% fetal bovine serum (FBS) and 4.5 g/l D-glucose. Equal number cells (5×10^4) were seeded in culture dishes (35×10 mm, 11.7 cm^2). The cells were treated with either 50 μg/ml of DTIC or […] for 24 h. The cells incubated with only 0.1% DMSO was considered as vehicle control. After 24 h, the cell lysates were prepared and analyzed for Vascular Endothelial Growth Factor (VEGF) expression by western blot assay as described earlier with appropriate modifications (43).
For Western blot analyses, equal amount of B16F0 cell lysate proteins were separated in 12.5% SDS-PAGE under reducing conditions, and transferred onto nitrocellulose membranes (Bio-Rad, USA). The membranes were blocked with SuperBlock (Thermo scientific, USA) and subsequently reacted with VEGF antibody (Abeam, UK) at 4° C. overnight. Bound antibodies were probed with horseradish peroxidase conjugated secondary antibody and the specific immunoreactions were developed with enhanced chemiluminescence (Thermo scientific, USA). […] The images of immunoreactive bands were captured in Kodak Image Station 4000MM (Carestream Health Inc., New Haven, Conn.) and analyzed densitometrically by Kodak molecular Imaging software, Version 4.5.
Background: In western blotting, separated proteins are transferred to a membrane and probed.

Data set [4] deals with Human umbilical vein endothelial cells (HUVEC). Description: Endothelial cell migration assay. Format: cell-based. To be noted: 18 h. Here is the method: The methodology of endothelial cell migration assay was essentially the same as described earlier with some modifications (43). FALCON™ Cell Culture inserts (Becton Dickinson, USA) with 8 μm-pores in their PET membrane was coated with 0.1 mg/ml of collagen. Human umbilical vein endothelial cells (HUVEC) were added to the cell culture inserts (Becton Dickinson) at a density of 5×10^4 cells/insert. Cells were allowed to migrate through the insert for 18 h in presence of different concentrations of either DTIC or Compound 6. The control culture containing migration assembly received only 0.1% DMSO. […] The membranes of the inserts were then mounted on glass slides. Cells migrated through the membrane pores were counted in 20 random fields under Nikon Eclipse TS 100 microscope at 20× objective.

For data set [5], the system named is metastatic malignant melanoma. To be noted: clinical setting; cited from earlier work.

In brackets after ≈: the same amount, converted by molar mass.

For orientation: melting point means the temperature, or range, at which the solid turns liquid. The compound `CN(C)/N=N/c1ccsc1C(=O)O` [Compound 6, 3-[(dimethylamino)diazenyl]thiophene-2-carboxylic acid] had a melting point of 108 to 110 °C. Also, in data set [1], the IC50 came out at 46.5 µg/mL (≈ 233 µM). Further, the “effect on cell cycle distribution” value in data set [2] is reported as “induction of cell cycle arrest in G2/M phase”. The VEGF protein expression result in data set [3] was “down regulation of VEGF protein”. In addition, the endothelial cell migration entry in data set [4] was “significant inhibition of migration”.
`CN(C)/N=N/c1[nH]cnc1C(N)=O` [DTIC, 5-(3,3-dimethyl-1-trizeno)-imidazole-4-carboxamide, reference compound]: in data set [5], the “Complete Response (CR) rate” value was “below 10%”.
